According to the CheMixHub viscosity set:
± gives the uncertainty stated by the source.

Experiment: xn = mol fraction of the nth substance listed

C=CC(=O)OCC + CCOCCOCCO
viscosity [mPa·s], 101 kPa
Conditions	293.15 K	298.15 K	303.15 K	308.15 K	313.15 K	318.15 K
x2 = 0.0707	0.666 ± 0.07	0.624 ± 0.07	0.587 ± 0.07	0.551 ± 0.07	0.521 ± 0.07	0.499 ± 0.07
x2 = 0.1417	0.76 ± 0.07	0.708 ± 0.07	0.662 ± 0.07	0.62 ± 0.07	0.582 ± 0.07	0.547 ± 0.07
x2 = 0.2167	0.879 ± 0.07	0.813 ± 0.07	0.756 ± 0.07	0.704 ± 0.07	0.66 ± 0.07	0.619 ± 0.07
x2 = 0.2803	0.997 ± 0.071	0.918 ± 0.07	0.85 ± 0.07	0.79 ± 0.07	0.735 ± 0.07	0.686 ± 0.07
x2 = 0.3626	1.192 ± 0.071	1.075 ± 0.071	0.989 ± 0.071	0.914 ± 0.07	0.847 ± 0.07	0.788 ± 0.07
x2 = 0.4228	1.335 ± 0.071	1.227 ± 0.071	1.113 ± 0.071	1.024 ± 0.071	0.946 ± 0.071	0.877 ± 0.07
x2 = 0.5004	1.571 ± 0.071	1.438 ± 0.071	1.305 ± 0.071	1.175 ± 0.071	1.079 ± 0.071	0.995 ± 0.071
x2 = 0.5659	1.812 ± 0.072	1.628 ± 0.071	1.477 ± 0.071	1.329 ± 0.071	1.214 ± 0.071	1.112 ± 0.071
x2 = 0.6497	2.136 ± 0.073	1.927 ± 0.072	1.737 ± 0.072	1.563 ± 0.071	1.411 ± 0.071	1.287 ± 0.071
x2 = 0.7196	2.467 ± 0.073	2.207 ± 0.073	1.956 ± 0.072	1.759 ± 0.072	1.599 ± 0.071	1.459 ± 0.071
x2 = 0.791	2.845 ± 0.074	2.512 ± 0.073	2.233 ± 0.073	1.998 ± 0.072	1.797 ± 0.072	1.627 ± 0.071
x2 = 0.869	3.342 ± 0.076	2.93 ± 0.075	2.558 ± 0.074	2.302 ± 0.073	2.046 ± 0.072	1.857 ± 0.072
x2 = 0.9299	3.752 ± 0.077	3.274 ± 0.076	2.84 ± 0.074	2.552 ± 0.074	2.258 ± 0.073	2.044 ± 0.072

Clc1ccccc1 + C1CCCCC1
Conditions	viscosity [mPa·s]
293.65 K, 101.33 kPa, x2 = 0.497	0.834 ± 0.0097
293.85 K, 101.33 kPa, x2 = 0.7	0.8665 ± 0.01
294.25 K, 101.33 kPa, x2 = 0.3	0.8152 ± 0.0094
294.55 K, 101.33 kPa, x2 = 0.4	0.819 ± 0.0095
294.75 K, 101.33 kPa, x2 = 0.2	0.8056 ± 0.0093
294.85 K, 101.33 kPa, x2 = 0.8	0.889 ± 0.01
295.15 K, 101.33 kPa, x2 = 0.6	0.8189 ± 0.0096
297.15 K, 101.33 kPa, x2 = 0.1	0.7894 ± 0.0092
303.05 K, 101.33 kPa, x2 = 0.3	0.738 ± 0.0085
303.25 K, 101.33 kPa, x2 = 0.7	0.7564 ± 0.0088
303.25 K, 101.33 kPa, x2 = 0.8	0.7829 ± 0.0091
303.45 K, 101.33 kPa, x2 = 0.1	0.731 ± 0.0084
303.75 K, 101.33 kPa, x2 = 0.2	0.7191 ± 0.0083
303.85 K, 101.33 kPa, x2 = 0.4	0.7276 ± 0.0084
303.85 K, 101.33 kPa, x2 = 0.6	0.7319 ± 0.0088
303.95 K, 101.33 kPa, x2 = 0.497	0.7249 ± 0.0084
308.15 K, 101 kPa, x2 = 0.0465	0.6656 ± 0.011
308.15 K, 101 kPa, x2 = 0.1818	0.6489 ± 0.011
308.15 K, 101 kPa, x2 = 0.2516	0.6418 ± 0.011
308.15 K, 101 kPa, x2 = 0.3629	0.6379 ± 0.011
308.15 K, 101 kPa, x2 = 0.4845	0.6421 ± 0.011
308.15 K, 101 kPa, x2 = 0.5788	0.6489 ± 0.011
308.15 K, 101 kPa, x2 = 0.6926	0.6668 ± 0.011
308.15 K, 101 kPa, x2 = 0.807	0.6991 ± 0.012
308.15 K, 101 kPa, x2 = 0.9588	0.7386 ± 0.013
312.65 K, 101.33 kPa, x2 = 0.1	0.6777 ± 0.0078
312.75 K, 101.33 kPa, x2 = 0.497	0.6502 ± 0.0075
312.75 K, 101.33 kPa, x2 = 0.7	0.666 ± 0.0077
312.95 K, 101.33 kPa, x2 = 0.4	0.6505 ± 0.0075
312.95 K, 101.33 kPa, x2 = 0.6	0.5637 ± 0.0066
313.15 K, 101 kPa, x2 = 0.0465	0.6298 ± 0.011
313.15 K, 101 kPa, x2 = 0.1818	0.6122 ± 0.011
313.15 K, 101 kPa, x2 = 0.2516	0.6045 ± 0.011
313.15 K, 101 kPa, x2 = 0.3629	0.5973 ± 0.01
313.15 K, 101 kPa, x2 = 0.4845	0.601 ± 0.01
313.15 K, 101 kPa, x2 = 0.5788	0.6074 ± 0.011
313.15 K, 101 kPa, x2 = 0.6926	0.6254 ± 0.011
313.15 K, 101 kPa, x2 = 0.807	0.6532 ± 0.011
313.15 K, 101 kPa, x2 = 0.9588	0.689 ± 0.012
313.25 K, 101.33 kPa, x2 = 0.2	0.6448 ± 0.0074
313.45 K, 101.33 kPa, x2 = 0.3	0.6518 ± 0.0075
313.75 K, 101.33 kPa, x2 = 0.8	0.6758 ± 0.0079
322.55 K, 101.33 kPa, x2 = 0.497	0.5847 ± 0.0068
322.55 K, 101.33 kPa, x2 = 0.6	0.585 ± 0.0066
322.75 K, 101.33 kPa, x2 = 0.3	0.591 ± 0.0068
322.75 K, 101.33 kPa, x2 = 0.4	0.5803 ± 0.0067
322.85 K, 101.33 kPa, x2 = 0.7	0.5926 ± 0.0069
322.85 K, 101.33 kPa, x2 = 0.8	0.6059 ± 0.007
